In patent US6881741B2 (ViroChem Pharma Inc., priority 2001, dated 2005) one finds IC50 data, which are given here for 28 compounds.

As usually defined, the IC50 is the concentration that inhibits the measured activity by half.

recombinant HCV NS5B (HCV RNA-dependent RNA polymerase), sequence (P26663 2420-3010 limits assumed): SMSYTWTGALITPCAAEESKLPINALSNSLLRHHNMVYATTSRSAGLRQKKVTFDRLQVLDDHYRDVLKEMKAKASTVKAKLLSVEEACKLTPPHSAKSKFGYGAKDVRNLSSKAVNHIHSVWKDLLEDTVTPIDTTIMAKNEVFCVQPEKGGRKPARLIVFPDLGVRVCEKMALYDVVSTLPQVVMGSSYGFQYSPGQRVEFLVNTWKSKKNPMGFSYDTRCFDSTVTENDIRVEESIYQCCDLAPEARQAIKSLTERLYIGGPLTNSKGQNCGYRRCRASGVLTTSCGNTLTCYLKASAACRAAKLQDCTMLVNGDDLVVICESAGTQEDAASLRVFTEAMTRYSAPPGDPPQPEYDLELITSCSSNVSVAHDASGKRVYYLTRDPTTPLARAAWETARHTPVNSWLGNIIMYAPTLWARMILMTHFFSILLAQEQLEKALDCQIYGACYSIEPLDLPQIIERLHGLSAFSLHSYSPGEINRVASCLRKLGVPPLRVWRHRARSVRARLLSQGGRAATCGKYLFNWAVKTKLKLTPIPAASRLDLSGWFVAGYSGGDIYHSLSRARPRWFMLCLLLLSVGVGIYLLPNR

One test has as its target recombinant HCV NS5B (HCV RNA-dependent RNA polymerase) (Hepatitis C virus genotype 1b, UniProt P26663). Put plainly: biochemical. The settings on record: HCV polymerase activity, list of compounds of Example 27; read-out: IC50 (polymerase activity).
For the compound `CCC(=O)N(Cc1ccc(C(C)(C)C)cc1)c1cc(-c2ccccc2)sc1C(=O)O` [Compound 417, 3-[(4-TERT-BUTYL-BENZYL)-PROPIONYL- AMINO]-5-PHENYL-THIOPHENE-2- CARBOXYLIC ACID], the IC50 is 5 to 20 µM. On the same count and under the same terms, in the case of `CC(C)CC(=O)N(Cc1ccc(F)cc1F)c1cc(-c2ccccc2)sc1C(=O)O` [Compound 486, 3-[(2,4-DIFLUORO-BENZYL)-(3-METHYL- BUTYRYL)-AMINO]-5-PHENYL- THIOPHENE-2-CARBOXYLIC ACID] it was 5 to 20 µM. The same measure, in the same setting: as for `COc1ccc(-c2cc(NS(=O)(=O)c3ccc(C)cc3)c(C(N)=O)s2)cc1` [Compound 565, 5-(4-METHOXY-PHENYL)-3-(TOLUENE-4- SULFONYLAMINO)-THIOPHENE-2- CARBOXYLIC ACID AMIDE], the figure is 5 to 20 µM; as for `CC(C)CC(=O)N(Cc1ccc(C(F)(F)F)cc1)c1cc(-c2ccccc2)sc1C(=O)O` [Compound 412, 3-[(3-METHYL-BUTYRYL)-(4- TRIFLUOROMETHYL-BENZYL)-AMINO]-5- PHENYL-THIOPHENE-2-CARBOXYLIC ACID], 5 to 20 µM; as for `CC(C)(C)c1ccc(CN(C(=O)C2CC2)c2cc(-c3ccccc3)sc2C(=O)O)cc1` [Compound 438, 3-[(4-TERT-BUTYL-BENZYL)- CYCLOPROPANECARBONYL-AMINO]-5- PHENYL-THIOPHENE-2-CARBOXYLIC ACID], 5 to 20 µM.

Regarding `CC(C)C(=O)N(Cc1ccc(F)cc1F)c1cc(-c2ccccc2)sc1C(=O)O` [Compound 485, 3-[(2,4-DIFLUORO-BENZYL)- ISOBUTYRYL-AMINO]-5-PHENYL- THIOPHENE-2-CARBOXYLIC ACID], the 50% inhibitory concentration (IC50) was in the range of 5 to 20 µM.

Staying with this test, now noted: related polymerase activity (Example 27 list); read-out: IC50.
As for `O=C(O)c1sc(-c2ccccc2)cc1N(C(=O)c1ccc(Cl)cc1Cl)C1CCN(C(=O)c2ccc(Cl)cc2Cl)CC1` [Compound 363, 3-[(2,4-DICHLORO-BENZOYL)-[1-(2,4- DICHLORO-BENZOYL)-PIPERIDIN-4-YL]- AMINO)-5-PHENYL-THIOPHENE-2- CARBOXYLIC ACID], the concentration for half-maximal inhibition (IC50) was less than 5 µM. Still for that read-out and setting: as for `C=CCN(C(=O)CCCCC)c1cc(-c2ccccc2)sc1C(=O)O` [Compound 397, 3-(ALLYL-HEXANOYL-AMINO)-5-PHENYL- THIOPHENE-2-CARBOXYLIC ACID], the figure is 5 to 20 µM; as for `Cc1ccccc1S(=O)(=O)Nc1cc(C(=O)c2ccccc2)sc1C(=O)O` [Compound 82, 5-BENZOYL-3-(TOLUENE-2-SULFONYLAMINO)-THIOPHENE-2-CARBOXYLIC ACID], 5 to 20 µM. Consider `NC(=O)c1ccc(-c2cc(NS(=O)(=O)c3ccc(Cl)cc3)c(C(=O)O)s2)cc1` [Compound 265, 5-(4-CARBAMOYL-PHENYL)-3-(4-CHLORO-BENZENESULFONYLAMINO)-THIOPHENE-2-CARBOXYLIC ACID], for which the IC50 was less than 5 µM.

`Cc1ccc(C(=O)N(c2cc(-c3ccccc3)sc2C(=O)O)C(C)C)c(Br)c1` [Compound 309, 3-[(2-BROMO-4-METHYL-BENZOYL)- ISOPROPYL-AMINO]-5-PHENYL- THIOPHENE-2-CARBOXYLIC ACID]: the IC50 is less than 5 µM. On the same count and under the same terms, in the case of `CC(=O)c1ccc(-c2cc(NS(=O)(=O)c3ccc(C)cc3)c(C(=O)O)s2)cc1` [Compound 237, 5-(4-ACETYL-PHENYL)-3-(TOLUENE-4-SULFONYLAMINO)-THIOPHENE-2-CARBOXYLIC ACID] it was less than 5 µM; in that of `Cc1noc(C)c1S(=O)(=O)Nc1cc(-c2ccccc2)sc1C(=O)O` [Compound 94, 3-(3,5-DIMETHYL-ISOXAZOLE-4-SULFONYLAMINO)-5-PHENYL-THIOPHENE-2-CARBOXYLIC ACID], 5 to 20 µM; in that of `N#Cc1ccc(-c2cc(NS(=O)(=O)c3ccc(Cl)cc3)c(C(=O)O)s2)cc1` [Compound 289, 3-(4-CHLORO-BENZENESULFONYLAMINO)-5-(4-CYANO-PHENYL)-THIOPHENE-2-CARBOXYLIC ACID], less than 5 µM. On the same count and under the same terms, in the case of `Cc1ccccc1S(=O)(=O)Nc1cc(-c2ccc(Cl)cn2)sc1C(=O)O` [Compound 191, 5-(5-CHLORO-PYRIDIN-2-YL)-3-(TOLUENE-2-SULFONYLAMINO)-THIOPHENE-2-CARBOXYLIC ACID] it was less than 5 µM; in that of `Cc1ccccc1S(=O)(=O)Nc1cc(-c2ccc([N+](=O)[O-])cc2)sc1C(=O)O` [Compound 59, 5-(4-NITRO-PHENYL)-3-(TOLUENE-2-SULFONYLAMINO)-THIOPHENE-2-CARBOXYLIC ACID], less than 5 µM.

In the case of `CC(C)N(C(=O)c1ccc(Cl)cc1Cl)c1cc(-c2cc3ccccc3o2)sc1C(=O)O` [Compound 376, 5-BENZOFURAN-2-YL-3-[(2,4-DICHLORO- BENZOYL)-ISOPROPYL-AMINO]- THIOPHENE-2-CARBOXYLIC ACID], the IC50 is less than 5 µM. The same measure, in the same setting: in the case of `O=C(Nc1cc(-c2ccccc2)sc1C(=O)O)Oc1ccc(Cl)cc1` [Compound 33, 3-(4-CHLORO-PHENOXYCARBONYLAMINO)-5-PHENYL-THIOPHENE-2-CARBOXYLIC ACID] it was 5 to 20 µM; in that of `CC(C)N(C(=O)c1ccc(C(F)(F)F)cc1F)c1cc(-c2ccccc2)sc1C(=O)O` [Compound 326, 3-[(2-FLUORO-4-TRIFLUOROMETHYL- BENZOYL)-ISOPROPYL-AMINO]-5- PHENYL-THIOPHENE-2-CARBOXYLIC ACID], less than 5 µM. On the same count and under the same terms, in the case of `Cc1cc(C(=O)N(C)c2cc(-c3ccccc3)sc2C(=O)O)ccc1Br` [Compound 255, 3-[(4-BROMO-3-METHYL-BENZOYL)-METHYL-AMINO]-5-PHENYL-THIOPHENE-2-CARBOXYLIC ACID] it was less than 5 µM; in that of `Cc1ccc(C(=O)N(C)c2cc(-c3ccc([N+](=O)[O-])cc3)sc2C(=O)O)cc1` [Compound 194, 3-[METHYL-(4-METHYL-BENZOYL)-AMINO]-5-(4-NITRO-PHENYL)-THIOPHENE-2-CARBOXYLIC ACID], 5 to 20 µM; in that of `CC(C)N(C(=O)c1ccc(Cl)cc1Cl)c1cc(-c2cccc(Cl)c2)sc1C(=O)O` [Compound 294, 5-(3-CHLORO-PHENYL)-3-[(2,4-DICHLORO-BENZOYL)-ISOPROPYL-AMINO]-THIOPHENE-2-CARBOXYLIC ACID], less than 5 µM. Still for that read-out and setting: as for `C/C=C/C(=O)N(CC)c1cc(-c2ccccc2)sc1C(=O)O` [Compound 394, 3-(BUT-2-ENOYL-ETHYL-AMINO)-5- PHENYL-THIOPHENE-2-CARBOXYLIC ACID], the figure is 5 to 20 µM; as for `Cc1ccccc1S(=O)(=O)Nc1cc(-c2ccc(O)cc2)sc1C(=O)O` [Compound 190, 5-(4-HYDROXY-PHENYL)-3-(TOLUENE-2-SULFONYLAMINO)-THIOPHENE-2-CARBOXYLIC ACID], less than 5 µM; as for `Cc1ccccc1S(=O)(=O)Nc1cc(-c2ccc(Cl)s2)sc1C(=O)O` [Compound 57, 5′-CHLORO-4-(TOLUENE-2-SULFONYLAMINO)-[2,2′]BITHIOPHENYL-5-CARBOXYLIC ACID], less than 5 µM.

As to `COc1ccc(-c2cc(NS(=O)(=O)c3ccc(C)cc3C)c(C(=O)O)s2)cc1` [Compound 361, 3-(2,4-DIMETHYL- BENZENESULFONYLAMINO)-5-(4- METHOXY-PHENYL)-THIOPHENE-2- CARBOXYLIC ACID], the IC50 was less than 5 µM. On the same count and under the same terms, in the case of `CN(C(=O)c1cc(Cl)cc(Cl)c1)c1cc(-c2ccccc2)sc1C(=O)O` [Compound 254, 3-[(3,5-DICHLORO-BENZOYL)-METHYL-AMINO]-5-PHENYL-THIOPHENE-2-CARBOXYLIC ACID] it was 5 to 20 µM; in that of `C=CCN(C(=O)Cc1ccc2ccccc2c1)c1cc(-c2ccccc2)sc1C(=O)O` [Compound 347, 3-[ALLYL-(2-NAPHTHALEN-2-YL-ACETYL)- AMINO]-5-PHENYL-THIOPHENE-2- CARBOXYLIC ACID], greater than 20 µM.
